Data set [1] deals with T1, JAK2 (Homo sapiens, UniProt O60674).
T1 construct: purchased Carna Biosciences
Briefly: JAK2 kinase activity, microfluidic assay (Caliper EZ Reader II, FAM labeled peptide substrate). The note with it: JAK2 1.5 nM, 1 mM ATP. The format is biochemical. As to the method:
(§1) Testing for JAK1, JAK2 and TYK2 Kinase Activities
(§2) JAK activity was determined in the reaction buffer 50 mM HEPES, 0.01% Brij35, 10 mM MgCl2, 2 mM DTT by a microfluidic assay. The phosphorylation of a FAM labeled peptide substrate was monitored in the Caliper EZ Reader II (Perkin Elmer). The assay condition for each batch of enzyme (Carna Biosciences) was optimized to obtain 10% conversion rate of peptide substrate.
(§3) The test compounds were dissolved in DMSO to a stock concentration of 10 mM. Three-fold serially diluted compounds with top concentration of 5 µM were pre-incubated with JAK1, JAK2 or TYK2 for 10 min at ambient temperature. The final DMSO concentration of assay mixture was 1%. […] The reaction was stopped by adding 50 mM EDTA.
(§4) And the well without compound but with equivalent DMSO was defined as no inhibition. The percent inhibition was calculated by the following formula: % Inhibition = (Conversion%_max−Conversion%_sample)/(Conversion%_max−Conversion%_min) × 100 [formula] wherein • Conversion%_ max = the conversion rate in the positive well without addition of compound • Conversion%_ sample = the conversion rate of test compounds • Conversion%_ min = the conversion rate in the well without addition of enzyme
(§5) The dose-response (percent inhibition) curve was plotted and IC50 values were determined by GraphPad software. The IC50 values of tested compounds were list in Table 3. Table 3. JAK1, JAK2 and TYK2 IC50 Values of Illustrative Compounds

The target in data set [2] is T2, TYK2 (Homo sapiens, UniProt P29597).
T2 construct: purchased Carna Biosciences
T2 sequence (P29597 897-1176 limits assumed): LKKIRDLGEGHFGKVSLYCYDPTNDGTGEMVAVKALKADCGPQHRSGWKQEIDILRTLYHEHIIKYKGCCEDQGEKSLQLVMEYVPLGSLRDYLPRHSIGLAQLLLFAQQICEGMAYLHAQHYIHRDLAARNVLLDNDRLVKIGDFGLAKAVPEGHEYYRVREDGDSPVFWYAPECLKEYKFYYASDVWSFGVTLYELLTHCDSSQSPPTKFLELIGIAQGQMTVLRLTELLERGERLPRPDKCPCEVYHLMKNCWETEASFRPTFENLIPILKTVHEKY
The data set is described as follows: TYK2 kinase activity, microfluidic assay (Caliper EZ Reader II, FAM labeled peptide substrate). The format is biochemical. Particulars: TYK2 20 nM, 1 mM ATP. On the procedure: as §1, §2, §3, §4, §5

A short description of data set [3]: Caco-2 cell permeability. The data set is classed as in vitro ADME. The note with it: human, Caco-2, 10.0 µM, no p-gp inhibitor. For orientation: Caco-2 cells form a polarised layer with tight junctions and transporters.
In data set [4] the test system is pSTAT1. Briefly: Phosphorylation inhibition of STAT in human whole blood (IFN-alpha stimulated, flow cytometry). The data set is classed as cell-based. The note with it: T-cell, 20 min, IFN-alpha stimulation 20 mins, CD3 T cells, read-out: pSTAT1 inhibition in hWB (IC50). A digest of the protocol:
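Fresh human whole blood stimulated 20 min with human universal type I IFN-alpha, then fixed, permeabilised and stained for CD3 and pSTAT1 (Y701). pSTAT1 in T cells read by flow cytometry; IC50 from 4-parameter logistic fit.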
On the technique in general: In flow cytometry, cells or beads pass a laser one at a time.

Data set [5] in a line: Microsomal metabolic stability assay. The format is in vitro ADME. Particulars: human, liver microsomes, pH 7.4, 0.5 mg/mL microsomal protein, 1 µM test article, 2 mM NADPH. Summed up:
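Test or control compound (1 µM) incubated with microsomes (0.5 mg/mL protein) in 100 mM potassium phosphate pH 7.4, 1.0 mM EDTA at 37°C, started with NADPH regenerating system (2 mM NADPH). Sampled at 0, 5, 15, 30, 45 min, acetonitrile-quenched, LC/MS/MS. T1/2 from ln %remaining vs time slope; CLint = 0.693/T1/2 per mg protein/mL.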
In general terms: Liver microsomes are a subcellular fraction often used to study metabolism.

For data set [6], the target named is T3, JAK1 (Homo sapiens, UniProt P23458).
T3 construct: purchased Carna Biosciences
T3 sequence (P23458 875-1153 limits assumed): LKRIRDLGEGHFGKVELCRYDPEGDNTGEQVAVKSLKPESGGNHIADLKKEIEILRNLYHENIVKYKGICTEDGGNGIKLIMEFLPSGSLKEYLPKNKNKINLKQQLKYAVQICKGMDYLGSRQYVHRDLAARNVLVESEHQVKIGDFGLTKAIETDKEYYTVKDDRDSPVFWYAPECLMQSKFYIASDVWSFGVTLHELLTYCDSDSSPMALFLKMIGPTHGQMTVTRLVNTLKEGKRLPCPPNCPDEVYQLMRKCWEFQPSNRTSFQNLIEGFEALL
The data set is described as follows: JAK1 kinase activity, microfluidic assay (Caliper EZ Reader II, FAM labeled peptide substrate). The note with it: JAK1 10 nM, 1 mM ATP. The format is biochemical. As to the method:
as §1, §2, §3, §4, §5

Some results are limits rather than exact numbers.

This note sets out measurements from patent EP4813463A2, “TYK2 INHIBITORS AND COMPOSITIONS AND METHODS THEREOF” (Lynk Pharmaceuticals Co. Ltd., priority 2023, dated 2024).

T1 sequence (O60674 849-1124 limits assumed): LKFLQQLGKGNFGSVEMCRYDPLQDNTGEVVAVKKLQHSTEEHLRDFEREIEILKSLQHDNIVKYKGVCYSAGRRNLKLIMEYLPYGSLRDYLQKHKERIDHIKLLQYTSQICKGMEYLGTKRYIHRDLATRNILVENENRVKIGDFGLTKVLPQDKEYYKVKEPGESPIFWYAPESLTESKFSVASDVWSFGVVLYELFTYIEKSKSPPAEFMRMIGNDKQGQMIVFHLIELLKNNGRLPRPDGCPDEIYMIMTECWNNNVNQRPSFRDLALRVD

Broadly, the IC50 is the concentration that gives 50% inhibition. As a reminder, the Papp A→B is the apparent permeability from the apical to the basolateral side of a cell layer. A lower Papp A→B goes with slow passage. What is called Papp B→A is how fast a substance crosses the layer from the basolateral side. Turning to `[2H]C([2H])([2H])NC(=O)c1cnc(NC(=O)C2CC2)cc1Nc1nn(C)c2ccc([C@H](O)C(F)(F)F)c(OC)c12` [Example 49A, (S)-6-(cyclopropanecarboxamido)-4-((4-methoxy-1-methyl-5-(2,2,2-trifluoro-1-hydroxyethyl)-1H-indazol-3-yl)amino)-N-(methyl-d3)nicotinamide], the IC50 in data set [1] was greater than 10 µM; in data set [2] it was greater than 5 µM; in data set [4], 0.0105 µM; in data set [6] it was greater than 5 µM. This compound had a Papp A→B at 90 min, 10 µM in data set [3] (90 mins, A to B) of 1.32 ×10⁻⁶ cm/s. The apparent permeability from basolateral to apical (Papp B→A) at 90 min, 10 µM in data set [3] (90 mins, B to A) was 66.6 ×10⁻⁶ cm/s. Further, in data set [3] (read-out: Efflux Ratio: Papp(B-A)/Papp(A-B)), the efflux ratio at 90 min, 10 µM is 50.3. Besides, the microsomal CLint at 1 µM in data set [5] (read-out: Human LM Clint) worked out at 19.3 µL/min/mg. Moreover, the half-life at 1 µM in data set [5] (read-out: Human LM T1/2) worked out at 1.19 h.
